{"source": "patent US20250228864A1", "about": "“THERAPIES FOR THE TREATMENT OF INFLAMMATORY BOWEL DISEASE” (Gilead Sciences, Inc., priority 2023, published 2025)", "target": "T1, α4β7 receptors on β7+CD4+CD45RO+ memory T cells (Homo sapiens, UniProt P13612+P26010)", "T1 construct": "endogenous in cells", "T1 sequence (P13612 34-1032)": "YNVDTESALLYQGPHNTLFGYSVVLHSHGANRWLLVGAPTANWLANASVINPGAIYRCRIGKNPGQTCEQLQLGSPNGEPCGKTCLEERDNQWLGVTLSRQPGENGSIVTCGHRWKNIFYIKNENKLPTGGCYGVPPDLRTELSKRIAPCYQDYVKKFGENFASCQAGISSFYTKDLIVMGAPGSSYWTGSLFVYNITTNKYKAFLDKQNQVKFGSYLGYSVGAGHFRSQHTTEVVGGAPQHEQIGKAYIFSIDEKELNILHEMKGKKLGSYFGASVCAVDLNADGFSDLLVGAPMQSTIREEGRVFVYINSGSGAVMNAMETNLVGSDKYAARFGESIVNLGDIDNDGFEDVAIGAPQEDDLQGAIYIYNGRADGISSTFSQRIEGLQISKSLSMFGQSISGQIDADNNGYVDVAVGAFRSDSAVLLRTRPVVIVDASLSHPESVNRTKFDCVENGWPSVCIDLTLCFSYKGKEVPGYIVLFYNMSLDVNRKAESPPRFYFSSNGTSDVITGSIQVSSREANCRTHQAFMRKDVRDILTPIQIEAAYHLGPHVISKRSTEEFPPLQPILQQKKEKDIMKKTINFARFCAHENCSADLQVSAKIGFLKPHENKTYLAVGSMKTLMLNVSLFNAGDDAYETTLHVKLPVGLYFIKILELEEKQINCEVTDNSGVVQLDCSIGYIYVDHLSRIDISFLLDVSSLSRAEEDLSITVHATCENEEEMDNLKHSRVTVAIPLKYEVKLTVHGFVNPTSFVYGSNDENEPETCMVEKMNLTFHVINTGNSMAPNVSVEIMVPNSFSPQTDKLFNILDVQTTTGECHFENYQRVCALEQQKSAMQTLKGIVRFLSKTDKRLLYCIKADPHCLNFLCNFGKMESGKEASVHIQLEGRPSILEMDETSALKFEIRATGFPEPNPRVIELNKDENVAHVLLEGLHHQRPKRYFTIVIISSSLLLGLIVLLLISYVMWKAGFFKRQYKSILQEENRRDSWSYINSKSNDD", "T1 sequence (P26010 20-798)": "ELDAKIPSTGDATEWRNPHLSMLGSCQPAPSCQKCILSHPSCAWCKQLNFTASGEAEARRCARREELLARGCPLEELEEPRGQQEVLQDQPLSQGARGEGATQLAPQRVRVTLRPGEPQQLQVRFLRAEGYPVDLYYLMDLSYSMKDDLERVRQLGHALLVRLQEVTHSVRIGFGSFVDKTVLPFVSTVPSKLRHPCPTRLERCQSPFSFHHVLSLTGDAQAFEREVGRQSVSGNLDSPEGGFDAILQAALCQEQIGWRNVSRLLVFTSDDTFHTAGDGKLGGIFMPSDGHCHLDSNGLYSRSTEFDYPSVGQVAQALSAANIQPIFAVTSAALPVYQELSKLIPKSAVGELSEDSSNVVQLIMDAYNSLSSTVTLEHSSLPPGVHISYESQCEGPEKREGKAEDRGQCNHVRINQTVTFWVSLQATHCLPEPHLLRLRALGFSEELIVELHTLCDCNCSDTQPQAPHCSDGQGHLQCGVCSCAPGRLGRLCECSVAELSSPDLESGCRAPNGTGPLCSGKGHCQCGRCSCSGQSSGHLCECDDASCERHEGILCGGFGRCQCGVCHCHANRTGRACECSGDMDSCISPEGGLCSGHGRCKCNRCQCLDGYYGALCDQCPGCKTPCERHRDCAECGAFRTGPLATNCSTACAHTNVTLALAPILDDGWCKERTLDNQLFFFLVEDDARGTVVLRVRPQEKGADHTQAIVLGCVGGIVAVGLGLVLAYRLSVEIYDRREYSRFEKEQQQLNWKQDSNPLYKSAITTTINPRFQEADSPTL", "experiment": "Whole blood α4β7 receptor occupancy (RO) assay by flow cytometry in SAD and MAD cohorts", "type": "in vivo", "conditions": "for time post last dose (Day 14) until which α4β7 % RO≥95% was sustained: 100% of participants", "experimental": "Formula (III) is a prodrug of Formula (I) and undergoes a rapid conversion to its active metabolite (Formula (I)) when administered to a human. The pharmacodynamics (PD) of the active metabolite of Formula (III) were analyzed in healthy volunteers by measuring the metabolites receptor occupancy (RO) on α4β7 receptors in whole blood to inform Formula (III) dose selection and schedule.\nA whole blood RO assay was developed and fit-for-purpose-validated that measures free α4β7 receptors on […] memory T cells in fresh whole blood by flow cytometry. The β7+CD4+CD45RO+ memory T-cells were identified using a staining panel comprised of fluorescently labelled anti-CD3, -CD4, -CD8, -CD45RO, and -β7 antibodies (Biolegend) (Table 14) as soon as possible after blood collection. Biotinylated human MAdCAM-1 protein, the natural ligand for α4β7, is mixed with streptavidin PE dextramer (Immudex) (MDX) and added to the whole blood in the presence of the divalent cation manganese (as MnCl2). MDX and the metabolite compete for binding to the α4β7 integrin receptor. Specimen data are acquired immediately on a BD LSRFortessa X-20 Cell Analyzer flow cytometer using a α4β7 RO cell acquisition template and application settings. The gating strategy is as follows: lymphocytes are gated based on size (FSC-A) and complexity (SSC-A). Doublets are removed using FSC-A/FSC-H. CD3+ lymphocytes are further differentiated into CD4+ and CD8+ T cells. CD4+CD45RO+ positive T cells are gated on β7 integrin and MDX positivity. The fluorescent intensities of PE-MDX β7+CD4+CD45RO+ memory T cells in pre-dose and post-dose whole blood are used to calculate the % RO post-dose. The lower level of quantification (LLOQ) of the assay was estimated to be ˜40% for a single measurement; similarly, the a4b7 RO assay was fit-for purpose validated to precisely quantify % RO up to 95% RO. Actual measured values <40% RO and ≥95% RO are shown but represent best estimates.\nWhole blood was collected pre- and post-Formula (III) or placebo to match (PTM) administration and percent α4β7 RO was calculated for all postbaseline time points in the SAD and MAD cohorts of the study. α4β7% RO was evaluated in all participants in Part A (SAD, Formula (III) 20 mg, 60 mg, 200 mg, 500 mg, and 1000 mg administered in liquid filled capsules under fasting conditions), and in Part B (MAD, Formula (III) 20 mg, 80 mg, 200 mg, 500 mg in liquid filled capsules under non-fasting conditions and Formula (III) 200 mg in tablet formulation under fasting conditions). In total, 2,506 samples collected at 35 different time-points from 109 unique participants were analyzed for α4β7% RO."}
{"compound": "CCOC(=O)[C@H](Cc1ccc(-n2c(=O)c3ccncc3n(C)c2=O)c2ncccc12)NC(=O)c1c(C)cc(N2CCOC[C@@H]2C(F)(F)F)cc1F", "note": "(atropisomer, axis not shown) [Formula (III)]", "values": [{"measurement": "time until which full target engagement could possibly be achieved", "setting": "200 mg capsule nonfasting, after last dose", "result": "approximately 48 h"}, {"measurement": "α4β7 % RO 72 h postdose, average", "setting": "200 mg capsule nonfasting, after last dose Day 14", "result": 90.1, "unit": "%"}, {"measurement": "α4β7 % RO at 24 h post last dose on Day 14", "setting": "200 mg capsule nonfasting, all participants", "result": "≥ 95", "unit": "%"}, {"measurement": "time post last dose (Day 14) until which α4β7 % RO≥95% was sustained", "setting": "200 mg tablet fasting", "result": 72, "unit": "h"}, {"measurement": "time post last dose (Day 14) until which α4β7 % RO≥95% was sustained", "setting": "500 mg capsule nonfasting", "result": 96, "unit": "h"}, {"measurement": "α4β7 % RO", "setting": "MAD 20 mg QD capsule nonfasting, Day 1, 3 h postdose", "result": 99.8, "unit": "%"}, {"measurement": "α4β7 % RO", "setting": "MAD 20 mg QD capsule nonfasting, Day 1, 24 h postdose", "result": 37.8, "unit": "%"}, {"measurement": "α4β7 % RO", "setting": "MAD 20 mg QD capsule nonfasting, Day 14, 24 h postdose", "result": 69.3, "unit": "%"}, {"measurement": "α4β7 % RO", "setting": "MAD 20 mg QD capsule nonfasting, Day 14, predose", "result": 70.8, "unit": "%"}, {"measurement": "change of α4β7 % RO post multiple once daily doses", "setting": "MAD 20 mg, Day 1 to Day 14", "result": "accumulation"}, {"measurement": "α4β7 % RO", "setting": "MAD 80 mg QD capsule nonfasting, Day 1, 3 h postdose", "result": 99.9, "unit": "%"}, {"measurement": "α4β7 % RO", "setting": "MAD 80 mg QD capsule nonfasting, Day 1, 24 h postdose", "result": 98.1, "unit": "%"}, {"measurement": "α4β7 % RO", "setting": "MAD 80 mg QD capsule nonfasting, Day 14, 24 h postdose", "result": 99.4, "unit": "%"}, {"measurement": "α4β7 % RO", "setting": "MAD 80 mg QD capsule nonfasting, Day 14, predose", "result": 99.3, "unit": "%"}, {"measurement": "target engagement of α4β7 at 24 h on Day 1", "setting": "MAD 80 mg nonfasting", "result": "achieved full target engagement"}, {"measurement": "α4β7 % RO", "setting": "MAD 200 mg QD capsule nonfasting, Day 1, 24 h postdose", "result": 99.8, "unit": "%"}, {"measurement": "α4β7 % RO", "setting": "MAD 200 mg QD capsule nonfasting, Day 14, 24 h postdose", "result": 99.8, "unit": "%"}, {"measurement": "α4β7 % RO", "setting": "MAD 200 mg QD capsule nonfasting, Day 14, predose", "result": 99.9, "unit": "%"}, {"measurement": "α4β7 % RO", "setting": "MAD 200 mg QD tablet fasting, Day 1, 3 h postdose", "result": 99.9, "unit": "%"}, {"measurement": "α4β7 % RO", "setting": "MAD 200 mg QD tablet fasting, Day 1, 24 h postdose", "result": 99.8, "unit": "%"}, {"measurement": "α4β7 % RO", "setting": "MAD 200 mg QD tablet fasting, Day 14, 24 h postdose", "result": 99.9, "unit": "%"}, {"measurement": "α4β7 % RO", "setting": "MAD 200 mg QD tablet fasting, Day 14, predose", "result": 100, "unit": "%"}, {"measurement": "α4β7 % RO", "setting": "MAD 500 mg QD capsule nonfasting, Day 1, 3 h postdose", "result": 99.9, "unit": "%"}, {"measurement": "α4β7 % RO", "setting": "MAD 500 mg QD capsule nonfasting, Day 1, 24 h postdose", "result": 99.9, "unit": "%"}, {"measurement": "α4β7 % RO", "setting": "MAD 500 mg QD capsule nonfasting, Day 14, 24 h postdose", "result": 99.9, "unit": "%"}, {"measurement": "α4β7 % RO", "setting": "MAD 500 mg QD capsule nonfasting, Day 14, predose", "result": 99.9, "unit": "%"}, {"measurement": "α4β7 % RO 24 h post the last once daily dose on Day 14", "setting": "MAD all doses ≥80 mg, in 100% of participants", "result": "≥ 95", "unit": "%"}, {"measurement": "α4β7 % RO", "setting": "SAD 20 mg liquid-filled capsule fasting, Day 1, 3 h postdose", "result": 100, "unit": "%"}, {"measurement": "α4β7 % RO", "setting": "SAD 20 mg liquid-filled capsule fasting, Day 1, 24 h postdose", "result": 35.9, "unit": "%"}, {"measurement": "α4β7 % RO", "setting": "SAD 60 mg liquid-filled capsule fasting, Day 1, 3 h postdose", "result": 100, "unit": "%"}, {"measurement": "α4β7 % RO", "setting": "SAD 60 mg liquid-filled capsule fasting, Day 1, 24 h postdose", "result": 63.4, "unit": "%"}, {"measurement": "α4β7 % RO", "setting": "SAD 200 mg liquid-filled capsule fasting, Day 1, 3 h postdose", "result": 99.9, "unit": "%"}, {"measurement": "α4β7 % RO", "setting": "SAD 200 mg liquid-filled capsule fasting, Day 1, 24 h postdose", "result": 99.7, "unit": "%"}, {"measurement": "α4β7 % RO", "setting": "SAD 500 mg liquid-filled capsule fasting, Day 1, 3 h postdose", "result": 99.9, "unit": "%"}, {"measurement": "α4β7 % RO", "setting": "SAD 500 mg liquid-filled capsule fasting, Day 1, 24 h postdose", "result": 99.8, "unit": "%"}, {"measurement": "α4β7 % RO", "setting": "SAD 1000 mg liquid-filled capsule fasting, Day 1, 3 h postdose", "result": 99.6, "unit": "%"}, {"measurement": "α4β7 % RO", "setting": "SAD 1000 mg liquid-filled capsule fasting, Day 1, 24 h postdose", "result": 99.8, "unit": "%"}, {"measurement": "α4β7 % RO (full target engagement)", "setting": "SAD fasting, 3 h postdose, all doses tested", "result": "≥ 95", "unit": "%"}, {"measurement": "subjects with full target engagement (% RO≥95) sustained 24 h postdose", "setting": "SAD fasting, doses ≥200 mg", "result": 100, "unit": "%"}]}
